Key:
flies = assay: Comparative investigations with known reference synergists on flies treated with carbofuran; assay type: in vivo; settings: flies treated with carbofuran and 1000 ng of the synergist
Excerpt: These SR50 ratios were compared to those of the new compounds prepared by us.

[1] = system: cotton bollworm (Helicoverpa armigera); assay: Synergistic activity on cotton bollworm following topical application; settings: in vivo
Description: Investigation of Synergistic Activity on Cotton Bollworm (Helicoverpa armigera) Following Topical Application
Treatment was performed similarity as described in Example 1. but L2 stadium grubs of cotton bollworms (Helicoverpa armigera) were treated as test animals. From the 24 hour dose--mortality data the LD50 (ng/grub) values were determined using probit analysis. None of the synergists acted at the applied 1000 ng/grub dose. Synergist ratio was calculated as the quotient of the LD50 values of carbofuran administered alone, and with the synergist. The experiments were performed in 2-4 replica.

[2] = system: house fly (Musca domestica); settings: in vivo, topical_or_ocular, 1440 min
Description: Investigation of Synergistic Activity on House Fly (Musca domestica) Following Topical Application
In two parallel experiments 10 female. 2-4 day old house flies were treated on the vental side of their thorax with 0.2 μl of the test solution, with the help of Hamilton MicroLab P microdispenser. Beside fixed synergist dose of 1000 ng/fly the animals were treated with carbofuran at a dose of 20 ng/fly. For solvent cellosolve was used. Selection and counting of the flies were performed under the action of CO2. After treatment the flies were kept in plastic cups covered with tulle. Mortality after 24 hours was expressed in %.

[3] = system: house fly (Musca domestica); assay: Effect of the active ingredient:synergist ratio on the synergistic activity (flies)
Description: Effect of the Active Ingredient:Synergist Ratio on the Synergistic Activity
Treatment was performed as described in Example 1. using Hamilton MicroLab P microdispenser. In two parallel experiments 10 female -3 day old flies were treated on the ventral side of their thorax with 0.2 μl test solution. Beside 1000-400-200-80 ng/fly fixed doses of the synergist they were treated with constant 20 ng/fly CARBOFURAN®. Selection and counting of the flies were performed under the action of CO2. After treatment the flies were kept in plastic cups covered with tulle. After 24 hours mortality % was recorded. Depending on the results the experiments were performed in 2-4 replica.

[4] = system: resistant house fly, INSEL strain; assay: Synergistic activity on resistant house fly, INSEL strain; assay type: in vivo, Musca domestica; settings: active ingredient alone
Description: Investigation of Synergistic Activity on Resistant House Fly (Musca domestica) Populations
Investigation was carried out as described in biological Example 1. LD50 values and synergist ratios were determined as given in Example 2.

[5] = carbofuran 20 ng/fly + synergist 80 ng/fly
[6] = carbofuran 20 ng/fly + synergist 200 ng/fly
[7] = carbofuran 20 ng/fly + synergist 400 ng/fly
[8] = house fly, in vivo, topical_or_ocular

| Compound | Synergist ratio SR50 (flies) | Synergist ratio [1] | mortality % [2] | further results |
| --- | --- | --- | --- | --- |
| 5-[(2-propynyl)-methyl]-1,3-benzodioxole | 10.60 |  |  |  |
| C#CCON=C(C)c1cccc2ccccc12 [1-acetonaphthon-oxim (2-propynyl) ether] | 7.79 |  |  |  |
| C#CCOc1cccc2ccccc12 [1-naphthyl 2-propargyl ether] | 6.52 |  |  |  |
| C#CCCOc1cccc2ccccc12 [1-naphthyl 3-butynyl ether] | 7.95 |  |  |  |
| C#CCOCc1cccc2ccccc12 [1-naphthylmethyl 2-propynyl ether] | 5.28 |  |  |  |
| C#CCOc1cccc2c1OC(C)(C)C2 [2,3-dihydro-2,2-dimethyl-7-(2-propynyloxy)benzofurane] | 1.8 |  |  |  |
| C#CCOCC1COc2ccccc2O1 (stereo not shown) [2-[(2-propynyloxy)methyl]-1,4-benzodioxane] | 5.58 |  |  |  |
| CC#CCOc1ccc2ccccc2c1 [2-naphthyl 2-butynyl ether] | 7.72 |  |  |  |
| CC#CCCOc1ccc2ccccc2c1 [2-naphthyl 3-pentynyl ether] | 9.97 |  |  |  |
| C#CCOC(=O)c1cccc2ccccc12 [2-propynyll-naphthyl-carboxylate] | 4.11 |  |  |  |
| C#CCOCc1c(Cl)cccc1Cl [(2,6-dichlorophenyl)methyl 2-propynyl ether] | 20.92 |  |  |  |
| C#CCOCc1ccc(OC)c(OC)c1 [(2-propynyloxy-methyl)-3,4-dimethoxy-benzene] | 6.58 |  |  |  |
| C#CCN(C)C(C)c1ccc2ccccc2c1 (stereo not drawn) [Compound 251, N-α-dimethyl-N-2-propynyl-β-naphthyl-methylamine] |  | > 5 | 37% |  |
| C#CCOC(C)c1ccc2ccccc2c1 (stereo not shown) [Compound 256, 2-[1-(2-propynyloxy)-ethyl]-naphthalene] |  | > 5 | 32% |  |
| CC#CCOC(C)c1cccc2ccccc12 (stereo not shown) [Compound 292, 1-[1-(2-butynyloxy)-ethyl]-naphthalene] |  | > 5 | 72% |  |
| CC#CCOC(C)c1ccc2ccccc2c1 (stereo not shown) [Compound 293, 2-[1-(2-butynyloxy)-ethyl]-naphthalene] |  | > 5 | 45% |  |
| CC#CCO[C@@H](C)c1cccc2ccccc12 [Compound 330, S-(-)-1-[1-(2-butynyloxy)-ethyl]-naphthalene] |  | > 5 | 62% |  |
| CC#CCO[C@H](C)c1cccc2ccccc12 [Compound 331, R-(+)-1-[1-(2-butynyloxy)-ethyl]-naphthalene] |  | > 5 | 72% |  |
| C#CCCOc1cccc2c1OC(C)(C)C2 [Compound 377, 2,3-dihydro, 2,2-dimethyl-7-(3-butynyloxy)-benzofuran] |  | > 5 | 57% |  |
| C#CC(C)OCc1cccc2ccccc12 (stereo not shown) [Compound 389] |  | > 5 | 27% |  |
| CC#CCCOc1cccc2c1OC(C)(C)C2 [Compound 418, 2,3-dihydro-2,2-dimethyl-7-(3-pentynyloxy)-benzofuran] | 20.5 | > 5 | 63% |  |

| Compound | Synergist ratio SR50 (flies) | Synergist ratio [1] | mortality % [2] | further results |
| --- | --- | --- | --- | --- |
| CC#CCOC(CC)c1cccc2ccccc12 (stereo not shown) [Compound 454, 1-[1-(2-butynyloxy)-propyl]-naphthalene] |  | > 5 | 75% | 24 hour mortality (%) [3, 5]: 40%; 24 hour mortality (%) [3, 6]: 45%; 24 hour mortality (%) [3, 7]: 60%; 24 hour mortality (%) [3, 8]: 75% |
| CC#CCO[C@H](C)c1ccc2ccccc2c1 [Compound 455, R-(+)-2-[1-(2-butynyloxy)-ethyl]-naphthalene] |  | > 5 | 70% | 24 hour mortality (%) [3, 5]: 25%; 24 hour mortality (%) [3, 6]: 48%; 24 hour mortality (%) [3, 7]: 63%; 24 hour mortality (%) [3, 8]: 77% |
| CC#CCO[C@@H](C)c1ccc2ccccc2c1 [Compound 456, S-(-)-2-[1-(2-butynyloxy)-ethyl]-naphthalene] |  | > 5 | 47% |  |
| CC#CCOC(c1cccc2ccccc12)C(C)C (stereo not shown) [Compound 472, 1-[2-methyl-1-(2-butynyloxy)-propyl]-naphthalene] |  | > 5 | 68% |  |
| C#CCO[C@@H](C)c1ccc2ccccc2c1 [Compound 474, S-(-)-2-[1-(2-propynyloxy)-ethyl]-naphthalene] |  | > 5 | 50% |  |
| C#CCO[C@H](C)c1ccc2ccccc2c1 [Compound 475, R-(+)-2-1[1-(2-propynyloxy)-ethyl]-naphthalene] |  | > 5 | 47% |  |
| CC#CCOC1CCc2ccccc21 (stereo not shown) [Compound 479, 1-(2-Butynyloxy)-indane] |  | > 5 | 58% |  |
| CC#CCOC1CCCc2ccccc21 (stereo not shown) [Compound 498, 1-(2-Butynyloxy)-1,2,3,4-tetrahydro-naphthalene] |  | > 5 | 70% |  |
| C#CCOC(=O)c1ccc2c(c1)OCO2 [Compound 501, 2-Propynyl 1,3-benzodioxol-5-carboxylate] |  | > 5 | 53% | 24 hour mortality (%) [3, 5]: 60%; 24 hour mortality (%) [3, 6]: 75%; 24 hour mortality (%) [3, 7]: 80%; 24 hour mortality (%) [3, 8]: 80% |
| CC#CCNC(=O)c1ccc2c(c1)OCO2 [Compound 523, N-(2-butynyl) 3,4-methylene-dioxy-benzamide] |  | > 5 | 17% |  |
| CC#CCNC(=O)c1ccc2ccccc2c1 [Compound 535, N-(2-Butynyl)-2-naphthamide] |  | > 5 | 27% |  |
| CC#CCN1C(=O)c2ccccc2C1=O [Compound 537, N-(But-2-ynyl)-phthalimide] |  | > 5 |  |  |
| CC#CCOCC1Cc2ccccc2O1 (stereo not shown) [Compound 539, 2-(2-butynyloxy-methyl)-2,3-dihydro-benzofuran] |  | > 5 | 48% |  |
| CC#CCCOc1ccc([N+](=O)[O-])cc1 [Compound 540, 1-(3-pentynyloxy)-4-nitro-benzene] |  | > 5 | 60% |  |
| C#CCNC(=O)c1cccc2ccccc12 [Compound 541, N-(2-Propynyl)-1-naphthamide] |  | > 5 | 46% |  |
| CC#CCNC(=O)c1cccc2ccccc12 [Compound 542, N-(2-Butynyl)-1-naphthamide] |  | > 5 | 42% |  |
| C#CCCOc1ccc([N+](=O)[O-])cc1 [Compound 547, 1-(3-butynyloxy)-4-nitro-benzene] |  |  | 47% |  |
| CC#CCOC(c1ccc2c(c1)OCO2)C1CCCCC1 (stereo not shown) [Compound 554, 5-[(But-2-ynyloxy)-cyclohexyl-methyl]-1,3-benzodioxole] |  | > 5 | 58% |  |
| CC#CCOC(c1ccccc1)c1ccc2c(c1)OCO2 (stereo not shown) [Compound 555, 5-[(But-2-ynyloxy)-phenyl-methyl]-1,3-benzodioxole] |  | > 5 | 90% |  |
| CC#CCON=C(C)c1ccc(OC)c(OC)c1 [Compound 572, 3,4-Dimethoxy-acetophenonoxym-(2-butynyl)-ether] |  | > 5 | 55% |  |
| C=CCC1=C(C)[C@@H](OC(=O)[C@@H]2[C@@H](C=C(C)C)C2(C)C)CC1=O [ESBIOL, reference compound] |  |  |  | LD50 [4]: 10653 ng/fly |

Reference: patent publication US6277867A, “Pesticide compounds, compositions and process for the preparation thereof” (priority 1995, dated 2001)
